Assay results taken from ChEMBL document CHEMBL3301472, “MMV Malaria Box HIV and cytotoxicity screening”.

Experiments:
Type in all cases: toxicity, cell-based
[1] = MMV: MTT Cytotoxicity Assay Day 7 pi of Assay #7 (compound washed out Day 1 pi), U87-CD4-CXCR4 cells, % cell death @ 5mM compound; details: human, u87-cd4-cxcr4, 5000 µM
[2] = MMV: MTT Cytotoxicity Assay Day 7 pi of Assay #6 (compound washed out Day 1 pi), U87-CD4-CCR5 cells, % cell death @ 5mM compound; details: human, u87-cd4-ccr5, 5000 µM
[3] = MMV: MTT Cytotoxicity Assay Day 7 pi of Assay #10 (NO washout), U87-CD4-CCR5 cells, % cell death @ 5mM compound; details: human, u87-cd4-ccr5, 5000 µM
[4] = MMV: MTT Cytotoxicity Assay Day 3 pi, U87-CD4-CXCR4 cells, % cell death @ 5mM compound; details: human, u87-cd4-cxcr4, 5000 µM
[5] = MMV: MTT Cytotoxicity Assay Day 7 pi of Assay #11 (NO washout), U87-CD4-CXCR4 cells, % cell death @ 5mM compound; details: human, u87-cd4-cxcr4, 5000 µM
[6] = MMV: MTT Cytotoxicity Assay Day 3 pi, U87-CD4-CCR5 cells, % cell death @ 5mM compound; details: human, u87-cd4-ccr5, 5000 µM

Structure (SMILES)	% Cell Death [1]	% Cell Death [2]	% Cell Death [3]	% Cell Death [4]	% Cell Death [5]	% Cell Death [6]
CCOc1ccccc1NC(=O)CN1CCN(C(=O)c2ccco2)CC1	38	13	37	-22	36	-66
CCc1ccc(CNCC(O)c2ccccc2)cc1.Cl (centres undefined)	28	-3	2	37	38	-25
Cc1cc(Nc2ccc3ccccc3c2)n2ncnc2n1	-16	12	-3	38	-43	39
Cc1cc(NC(=O)c2cccc(C(F)(F)F)c2)n(-c2nc(-c3ccc4c(c3)OCO4)cs2)n1	-18	16	9	17	-57	40
COc1cc(SC)ccc1C(=O)N1CCCC(C)C1 (centres undefined)	-26	12	-5	28	-41	9
CCOC(=O)c1cnc2c(C)cc(C)cc2c1Nc1ccc(OC)c(OC)c1	7	19	8	22	-7	11
CN1CCN(c2nc(Nc3ccc(O)cc3)nc3ccccc23)CC1.Cl	-23	-8	43	32	110	11
COc1ccc(CN2CCCC(C(=O)c3ccc(C(F)(F)F)cc3)C2)c(O)c1 (centres undefined)	97	104	105	89	109	107
Cc1ccccc1OCCSc1nc2ccc(NC(=O)c3cccs3)cc2s1	81	103	107	101	106	110
CN(C)c1ccc(N=Cc2ccc(N3CCOCC3)cc2)cc1	97	92	135	100	109	108
COc1ccc(NC(=O)C2c3ccccc3C(=O)N(CC(C)C)C2c2cccs2)cc1Cl (centres undefined)	-21	5	-2	22	-10	13
Nc1nc(Nc2cccc(F)c2)nc2ccccc12	-13	-19	45	38	36	42
COc1cc(CNCCc2ccc(Cl)cc2)cc(OC)c1O	11	-15	18	35	91	-11
O=C(Nc1ccc(-c2nc3ccccc3[nH]2)cc1)c1ccc(Cl)c(Cl)c1	20	-9	33	39	-46	38
COc1cc(C(=O)Nc2ccc(-c3nc4ccccc4[nH]3)cc2)cc(OC)c1OC	-7	-4	29	29	-49	-27
CCN(CC)CCNc1ccnc2cc(Cl)ccc12	-5	21	17	36	-13	4
Cc1sc(NC(=O)c2ccccc2)c(C(c2cccs2)N2CCN(c3ccccc3)CC2)c1C (centres undefined)	4	-19	95	45	-15	-1
CCOC(=O)c1c(NC(=O)c2ccccc2)sc2c(O)c(CN(CC)CC)ccc12	40	-2	25	-8	25	-7
CC(C)(C)c1ccc(O)c(CNC2CCCCC2)c1	96	69	132	66	101	108
Oc1ccc(Br)cc1CN1CCN(Cc2ccc(Cl)cc2)CC1	29	12	46	69	44	27

Structure (SMILES)	% Cell Death [1]	% Cell Death [2]	% Cell Death [3]	% Cell Death [4]	% Cell Death [5]	% Cell Death [6]
COc1ccccc1N1C(=N)SC(=Cc2ccc(OCc3ccccc3F)cc2)C1=O	7	23	30	24	24	17
COc1cccc(-c2nn(C)c3sc(C(=O)NCCN4CCN(c5ccccc5F)CC4)cc23)c1	-4	2	33	64	13	21
COc1ccc(CCNC(=O)c2cc(S(=O)(=O)N3CC(C)CC(C)C3)ccc2Sc2ccc(F)cc2)cc1OC (centres undefined)	14	-8	27	39	29	39
C=C(C)CCC(C)N1CCC(N2CCC(C(=O)NCCc3ccccc3)CC2)CC1 (centres undefined)	-27	23	11	3	-11	-11
CCOc1cccc(C(=O)Nc2ccc(-c3nc4ccccc4[nH]3)cc2)c1	-23	8	6	46	65	-33
CCN(CC)CCNc1ncnc2c1[nH]c1ccc(Br)cc12	-18	-1	15	24	-18	-7
C[n+]1c2ccccc2nc2ccc(NCCO)cc21	-30	29	49	11	16	-33
CCOc1ccc(-n2cc(-c3ccccc3)c3c(SCc4cc(C)ccc4C)ncnc32)cc1	-9	11	-1	29	11	3
COCCNCC(O)Cn1c2ccc(Cl)cc2c2cc(Cl)ccc21 (centres undefined)	-16	14	28	30	15	29
CCN1CCCC1CNc1[nH]cnc2c3cc(Cl)ccc3nc1-2 (centres undefined)	-7	26	40	23	14	45
COc1ccc(CNC(=O)c2cc3c(=O)n4ccccc4nc3n(CCc3ccccc3)c2=N)cc1	-14	-17	0	37	49	14
Cc1ccc2c(C)nc(Nc3nc(C)cc(-c4ccccc4)n3)nc2c1	97	98	114	99	104	107
COc1ccccc1CNC(=O)C1c2ccccc2C(=O)N(CC(C)C)C1c1cccs1 (centres undefined)	-8	67	60	23	43	108
COc1ccc(C(=O)NC(c2ccccc2Cl)c2cc(Cl)c3cccnc3c2O)cc1 (centres undefined)	3	23	11	81	6	50
CC1=C(CC(=O)c2cccc([N+](=O)[O-])c2)C(=O)c2ccccc2C1=O	91	100	94	76	106	92
c1ccc2cc3c(Nc4ccc(N5CCOCC5)cc4)ccnc3cc2c1	98	99	106	97	108	91
CCOC(=O)c1cn(CC)c2cc(N3CCCCC3)c(F)cc2c1=O	97	99	115	101	103	106
CCOC(=O)C1(Cc2ccccc2)CCN(Cc2cccc(OC)c2O)CC1	-16	15	21	29	-36	0
Oc1ccc(C(=C(Cl)Cl)c2ccc(O)cc2)cc1	36	-14	84	75	103	80
